Literature values as cited in patent publication US9492541B2, “Phenylepherine containing dosage form” (SOVEREIGN PHARMACEUTICALS, LLC, priority 2004, dated 2016).

Settings: oral

In the case of `CNC[C@H](O)c1cccc(O)c1` [phenylepherine], the “period over which a single dose provides a therapeutically effective plasma concentration” value is listed as 2.5 ± 0.7 h.
